Measurements as given in patent US11407745B2, “Indazole derivatives and pharmaceutical composition for preventing, alleviating or treating cancer containing the same” (KOREA INSTITUTE OF SCIENCE AND TECHNOLOGY, priority 2019, dated 2022).
Where two headings read alike, the source gives them in different places.

Columns and labels:
ABL^T315I [1] = molecular target: T1, ABL^T315I (Homo sapiens, UniProt P00519, T315I); conditions: positive controls, values in the references; cited from earlier work
ABL^wild [2] = molecular target: T2, ABL^wild (Homo sapiens, UniProt P00519); conditions: positive controls, values in the references; cited from earlier work
[3] = test system: K-562 (human leukemia cancer) cells; conditions: positive controls, values in the references; read-out: GI50, μm K562; cited from earlier work
ABL^wild [4] = molecular target: T2, ABL^wild; test: Hot Spot kinase assay, ABL wild type; format: biochemical; conditions: for IC50: ATP 10 μM, 25° C., 120 minutes
Method: (§1) Kinase analysis was conducted in a “Hot Spot” analysis platform manner. Specific kinase/substrate pairs and cofactors were prepared in a reaction buffer (20 mM HEPES (pH 7.5), 10 mM MgCl2, 1 mM EGTA, 0.02% Brij35, 0.02 mg/ml BSA, 0.1 mM Na3VO4, 2 mM DTT and 1% DMSO). 10 concentrations of compounds that were serially diluted 3 times in sequence from a concentration of 20 μM were added to the reaction mixture, and a mixture of ATP (10 μM, Sigma) and 33P ATP (Perkin Elmer) was added thereto after 20 minutes.

ABL^T315I [5] = molecular target: T1, ABL^T315I; test: Hot Spot kinase assay, ABL T315I; format: biochemical; conditions: for IC50: ATP 10 μM, 25° C., 120 minutes
Method: as §1

DDR1 = DDR1 (Homo sapiens, UniProt Q08345); test: Hot Spot kinase assay, DDR1; format: biochemical; conditions: for IC50: ATP 10 μM, 25° C., 120 minutes
Method: The kinase inhibitory effect of the compounds of Compound Nos. 1 to 16 was measured. Kinase analysis was conducted in a “Hot Spot” analysis platform manner. Specific kinase/substrate pairs and cofactors were prepared in a reaction buffer (20 mM HEPES (pH 7.5), 10 mM MgCl2, 1 mM EGTA, 0.02% Brij35, 0.02 mg/ml BSA, 0.1 mM Na3VO4, 2 mM DTT and 1% DMSO). 10 concentrations of compounds that were serially diluted 3 times in sequence from a concentration of 20 μM were added to the reaction mixture, and a mixture of ATP (10 μM, Sigma) and 33P ATP (Perkin Elmer) was added thereto after 20 minutes. The reaction was conducted at 25° C. for 120 minutes, the spots during the reaction were filtered using P81 ion exchange filter paper (Whatman #3698-915), and the unbound phosphate was removed by washing with 0.1% phosphoric acid using a filter.

[6] = test system: K-562 (human leukemia cancer) cells; test: MTT assay, anti-proliferative effect on K-562; format: cell-based; conditions: for GI50: Homo sapiens, MTT; for fold higher inhibitory effect than imatinib (K-562 GI50): versus imatinib positive control; for fold higher inhibitory effect than nilotinib (K-562 GI50): versus nilotinib
Method: The cell line used for an MTT assay was K-562 (human leukemia cancer), and was obtained from the Korea Cell Line Bank and then cultured. The medium herein used was RPMI 1640 medium containing 10% fetal bovine serum, and the culture was conducted in a constant-temperature constant-humidity incubator (37° C., 5% CO2). The cells were seeded at a density of 3×10^3 cells/well in a 96-well microplate and cultured in a CO2 incubator for 24 hours, the medium was removed, and further culture was performed for 72 hours in 100 μl of respective inhibitor solutions diluted to different concentrations. 15 μl of an MTT solution (Promega, CellTiter 96) was added thereto and cultured for 4 hours. Then, blue formazan, formed by adding 100 μl of a stop solution (Promega, CellTiter 96), was dissolved.
After the culture solution was allowed to stand for 18 hours or more, absorbance was measured at 570 nm to obtain IC50 (a concentration at which 50% of cancer cells are inhibited).

CML patients = conditions: primary therapeutic agent for CML patients; cited from earlier work
patients = patients administered with ponatinib; cited from earlier work
[7] = K562, 72 hours treatment, read-out: GI50, μm K562
[8] = K562, 72 hours, read-out: GI50 against K-562 cancer cells

Chain of DDR1 (Q08345 19-913): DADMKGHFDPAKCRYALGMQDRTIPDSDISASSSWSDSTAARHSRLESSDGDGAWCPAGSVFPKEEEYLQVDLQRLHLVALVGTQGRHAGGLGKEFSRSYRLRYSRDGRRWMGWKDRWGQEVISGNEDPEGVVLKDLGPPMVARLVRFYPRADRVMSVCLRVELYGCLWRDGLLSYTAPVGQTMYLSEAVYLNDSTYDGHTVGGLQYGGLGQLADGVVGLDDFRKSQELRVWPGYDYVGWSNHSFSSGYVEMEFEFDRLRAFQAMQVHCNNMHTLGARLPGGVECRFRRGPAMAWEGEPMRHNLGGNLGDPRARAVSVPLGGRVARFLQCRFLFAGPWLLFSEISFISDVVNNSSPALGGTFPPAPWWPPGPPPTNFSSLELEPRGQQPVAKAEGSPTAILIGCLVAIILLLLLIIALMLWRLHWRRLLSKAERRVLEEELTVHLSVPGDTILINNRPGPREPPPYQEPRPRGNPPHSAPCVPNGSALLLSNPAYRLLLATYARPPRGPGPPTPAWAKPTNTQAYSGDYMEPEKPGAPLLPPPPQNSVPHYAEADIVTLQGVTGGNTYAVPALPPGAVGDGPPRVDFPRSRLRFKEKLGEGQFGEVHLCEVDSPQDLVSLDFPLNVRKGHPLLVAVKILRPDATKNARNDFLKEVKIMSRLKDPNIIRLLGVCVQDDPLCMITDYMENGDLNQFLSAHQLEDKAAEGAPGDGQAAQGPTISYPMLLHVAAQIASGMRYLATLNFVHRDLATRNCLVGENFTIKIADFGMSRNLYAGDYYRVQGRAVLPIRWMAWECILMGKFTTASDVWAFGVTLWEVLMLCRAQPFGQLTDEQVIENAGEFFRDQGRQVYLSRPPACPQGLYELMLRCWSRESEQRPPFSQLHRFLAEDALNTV

| Structure (SMILES) | IC50 (ABL^wild [4]) [nM] | IC50 (ABL^T315I [5]) [nM] | IC50 (DDR1) [nM] | GI50 [6, 7] [nM] | also measured |
| --- | --- | --- | --- | --- | --- |
| Nc1n[nH]c2cccc(-c3ccc(C(=O)N4CCN(C(=O)c5ccc(Cl)cc5Cl)CC4)cc3)c12 [(4-(4-(3-amino-1H-indazol-4-yl)benzoyl)piperazin-1-yl)(2,4-dichlorophenyl)methanone] |  |  |  |  | IC50 (ABL^T315I [1]): 450 nM; IC50 (ABL^wild [2]): 14 nM; GI50 [3]: 6500 nM |
| Nc1n[nH]c2cccc(C#Cc3cccc(NC(=O)c4cccc(C(F)(F)F)c4)c3)c12 [Compound No. 1, N-(3-((3-Amino-1H-indazol-4-yl)ethynyl)phenyl)-3-(trifluoromethyl)benzamide] | 313 | 2550 | 53.3 | 1450 ± 1160 |  |
| Nc1n[nH]c2cccc(C#Cc3cccc(NC(=O)c4cc(C(F)(F)F)cc(C(F)(F)F)c4)c3)c12 [Compound No. 2, 4N-(3-((3-Amino-1H-indazol-4-yl)ethynyl)phenyl)-3,5-bis (trifluoromethyl)benzamide] | 667 |  | 96.5 |  |  |
| Cc1cn(-c2cc(C(=O)Nc3cccc(C#Cc4cccc5[nH]nc(N)c45)c3)cc(C(F)(F)F)c2)cn1 [Compound No. 3] | 17.1 | 1290 | 13.1 | 120 |  |
| Nc1n[nH]c2cccc(C#Cc3cccc(NC(=O)c4cc(F)cc(C(F)(F)F)c4)c3)c12 [Compound No. 4, N-(3-((3-Amino-1H-indazol-4-yl)ethynyl)phenyl)-3-fluoro-5-(trifluoromethyl)benzamide] | 172 |  | 82.8 | 2100 ± 1110 |  |
| Nc1n[nH]c2cccc(C#Cc3cccc(NC(=O)c4cc(N5CCOCC5)cc(C(F)(F)F)c4)c3)c12 [Compound No. 5, N-(3-((3-Amino-1H-indazol-4-yl)ethynyl)phenyl)-3-morpholino-5-(trifluoromethyl)benzamide] | 637 |  | 20.1 | 2140 ± 1150 |  |
| Cc1ccc(C(=O)Nc2cccc(C#Cc3cccc4[nH]nc(N)c34)c2)cc1C(F)(F)F [Compound No. 6, N-(3-((3-Amino-1H-indazol-4-yl)ethynyl)phenyl)-4-methyl-3-(trifluoromethyl)benzamide] | 104 | 2960 | 22.6 | 1620 ± 1240 |  |
| CN1CCN(c2ccc(C(=O)Nc3cccc(C#Cc4cccc5[nH]nc(N)c45)c3)cc2C(F)(F)F)CC1 [Compound No. 7, N-(3-((3-Amino-1H-indazol-4-yl)ethynyl)phenyl)-4-(4-methylpiperazin-1-yl)-3-(trifluoromethyl)benzamide] |  |  | 31.9 |  |  |
| Nc1n[nH]c2cccc(C#Cc3cccc(NC(=O)c4ccc(N5CCOCC5)c(C(F)(F)F)c4)c3)c12 [Compound No. 8] | 5.21 | 183 | 14.7 |  | inhibitory activity against ABL (in words) (ABL^wild [4]): excellent inhibitory activity; inhibitory activity against the T315I point mutation of ABL (in words) (ABL^T315I [5]): exhibited inhibitory activity; inhibitory activity against DDR1 (in words) (DDR1): excellent inhibitory activity; proliferation inhibitory effect on K-562 cancer cells (in words) [6]: excellent anti-proliferative activity; GI50 [6, 8]: 20 nM; fold higher inhibitory effect than imatinib (K-562 GI50) [6]: 13 fold; fold higher inhibitory effect than nilotinib (K-562 GI50) [6]: 4 fold |
| Nc1n[nH]c2cccc(C#Cc3cccc(C(=O)Nc4cccc(C(F)(F)F)c4)c3)c12 [Compound No. 9] | 210 |  | 18.4 | 3750 ± 1220 |  |
| Nc1n[nH]c2cccc(C#Cc3cccc(C(=O)Nc4cc(C(F)(F)F)cc(C(F)(F)F)c4)c3)c12 [Compound No. 10, 3-((3-Amino-1H-indazol-4-yl)ethynyl)-N-(3,5-bis(trifluoromethyl)phenyl)benzamide] | 186 |  | 33 | 460 ± 1340 |  |
| Cc1cn(-c2cc(NC(=O)c3cccc(C#Cc4cccc5[nH]nc(N)c45)c3)cc(C(F)(F)F)c2)cn1 [Compound No. 11, 3-((3-Amino-1H-indazol-4-yl)ethynyl)-N-(3-(4-methyl-1H-imidazol-1-yl)-5-(trifluoromethyl)phenyl)benzamide] | 15.4 | 1060 | 21 | 140 |  |
| CN1CCN(Cc2cc(NC(=O)c3cccc(C#Cc4cccc5[nH]nc(N)c45)c3)cc(C(F)(F)F)c2)CC1 [Compound No. 12] | 60.5 | 1150 | 29.1 | 290 |  |
| Nc1n[nH]c2cccc(C#Cc3cccc(C(=O)Nc4ccc(Cl)c(C(F)(F)F)c4)c3)c12 [Compound No. 14, 3-((3-Amino-1H-indazol-4-yl)ethynyl)-N-(4-chloro-3-(trifluoromethyl)phenyl)benzamide] | 255 |  | 20 | 3330 ± 1180 |  |
| CCN1CCN(Cc2ccc(NC(=O)c3cccc(C#Cc4cccc5[nH]nc(N)c45)c3)cc2C(F)(F)F)CC1 [Compound No. 15, 3-((3-Amino-1H-indazol-4-yl)ethynyl)-N-(4-((4-ethylpiperazin-1-yl)methyl)-3-(trifluoromethyl)phenyl)benzamide] | 0.625 | 5.82 | 3.7 | 30 | inhibitory activity against ABL (in words) (ABL^wild [4]): excellent inhibitory activity; inhibitory activity against the T315I point mutation of ABL (in words) (ABL^T315I [5]): excellent inhibitory activity; inhibitory activity against DDR1 (in words) (DDR1): excellent inhibitory activity; proliferation inhibitory effect on K-562 cancer cells (in words) [6]: excellent anti-proliferative activity; GI50 [6, 8]: 30 nM; fold higher inhibitory effect than imatinib (K-562 GI50) [6]: 8.9 fold; fold higher inhibitory effect than nilotinib (K-562 GI50) [6]: 2.7 fold |
| Nc1n[nH]c2cccc(C#Cc3cccc(C(=O)Nc4ccc(CN5CCOCC5)c(C(F)(F)F)c4)c3)c12 [Compound No. 16] | 103 | 1360 | 16.3 | 520 ± 1250 |  |
| Cc1ccc(NC(=O)c2ccc(CN3CCN(C)CC3)cc2)cc1Nc1nccc(-c2cccnc2)n1 [Imatinib] |  |  |  |  | GI50 [3]: 267 ± 30 nM; share of patients in whom effective (CML patients): 67% |
| Cc1cn(-c2cc(NC(=O)c3ccc(C)c(Nc4nccc(-c5cccnc5)n4)c3)cc(C(F)(F)F)c2)cn1 [Nilotinib] |  |  |  |  | GI50 [3]: 80 ± 90 nM |
| Cc1ccc(C(=O)Nc2ccc(CN3CCN(C)CC3)c(C(F)(F)F)c2)cc1C#Cc1cnc2cccnn12 [Ponatinib] |  |  |  |  | share of patients with side effects such as thrombosis or narrowing of blood vessel walls (patients): 20% |
